Paper PMC7442650, “A machine learning-based chemoproteomic approach to identify drug targets and binding sites in complex proteomes” (Nature Communications, 2020)
Like-named read-outs stand apart in the source and are kept apart here. Blank lines part the entries; values can stand above or below the compound they belong to.

Columns and labels:
PP1 = assay: LiP-Quant, HeLa lysate; type: binding, human; conditions: 16 peptides, read-out: median EC50 across LiP-Quant peptides
Excerpt: Next, we focused on kinases and phosphatases as drug targets of particular pharmacological interest, given their frequent dysregulation in disease, particularly in cancer. One common issue with these classes of targets is their variable selectivity, as some of these drugs have more than one protein target in the cell, and frequently bind them with different affinities, thus it is important to characterize these subtle differences to determine the specific modes of actions.

PP2A/B (PPP2CA;PPP2CB) = assay: LiP-Quant, HeLa lysate; type: binding, human
PPP1CA = PPP1CA (Homo sapiens, UniProt P62136); assay: LiP-Quant, HeLa lysate; type: binding; conditions: peptide […]
PPP3CA = PPP3CA (Homo sapiens, UniProt Q08209); assay: LiP-Quant, HeLa lysate; type: binding; conditions: peptide SDDELGSEEDGFDGATAAAR
PP2A and PP1 = conditions: cited from earlier work
FKBP1A = FKBP1A (Homo sapiens, UniProt P62942)
SYEC = molecular target: T1, SYEC (Saccharomyces cerevisiae, UniProt P46655); assay: LiP-Quant, S. cerevisiae lysates; type: binding; conditions: wild type yeast lysate
T1 construct: Cell lysates from at least three independent biological replicates were aliquoted in equivalent volumes containing 100 µg of proteome sample; endogenous in cells; host or cells: S. cerevisiae (Euroscarf strains), cryo-milled lysate
Procedure: (§1) To discriminate between these two cases, the same LiP-Quant experiment was performed with lysates where TOR signaling was impaired via a mutation in the tor1 gene and a deletion of the fpr1 gene (tor1-1 Δfpr1)[20].
(§2) Saccharomyces cerevisiae: Cell lysates from at least three independent biological replicates were aliquoted in equivalent volumes containing 100 µg of proteome sample and incubated for 10 min at 25 °C with the drug of interest. […] Samples were then heated again at 98 °C for 3 min in a thermocycler. These samples were then subjected to complete digestion in denaturing conditions as described below.

ARI1 = molecular target: T2, ARI1 (Saccharomyces cerevisiae, UniProt P53111); assay: LiP-Quant, S. cerevisiae lysates; type: binding; conditions: wild type yeast lysate
T2 construct: Cell lysates from at least three independent biological replicates were aliquoted in equivalent volumes containing 100 µg of proteome sample; endogenous in cells; host or cells: S. cerevisiae (Euroscarf strains), cryo-milled lysate
Procedure: as §1, §2

[1] = molecular target: T3, FPR1 (FK506-binding protein 1, P20081) (Saccharomyces cerevisiae, UniProt P20081); assay: LiP-Quant, S. cerevisiae lysates (wild type); conditions: Yeast WT; for EC50: EC50 (nM)
T3 construct: Cell lysates from at least three independent biological replicates were aliquoted in equivalent volumes containing 100 µg of proteome sample; endogenous in cells; host or cells: S. cerevisiae wild type (Euroscarf), cryo-milled lysate
T3 sequence (P20081 1-114): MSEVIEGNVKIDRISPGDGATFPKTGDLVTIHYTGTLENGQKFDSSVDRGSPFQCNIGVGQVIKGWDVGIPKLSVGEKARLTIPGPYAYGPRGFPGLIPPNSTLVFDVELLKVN

XPO1 (Exportin-1) = XPO1 (Exportin-1) (Homo sapiens, UniProt O14980); assay: LiP-Quant, HeLa lysate; type: binding; conditions: peptide NQCEGIKK
LIN7C = molecular target: T4, LIN7C (Homo sapiens, UniProt Q9NUP9); assay: LiP-Quant, HeLa lysate; type: binding; conditions: peptide AASEGHSHPR
T4 sequence (Q9NUP9 1-197): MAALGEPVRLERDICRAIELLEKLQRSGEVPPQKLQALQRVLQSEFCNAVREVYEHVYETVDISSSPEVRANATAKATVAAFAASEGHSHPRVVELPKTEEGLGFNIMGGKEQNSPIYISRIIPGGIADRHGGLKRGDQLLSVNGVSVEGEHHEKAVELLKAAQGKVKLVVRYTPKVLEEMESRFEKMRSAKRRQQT

MAPK2K1 (MAP2K1) = MAPK2K1 (MAP2K1) (Homo sapiens, UniProt Q02750); assay: LiP-Quant, HeLa lysate; type: binding
PLEC (Plectin) = PLEC (Plectin) (Homo sapiens, UniProt Q15149); assay: LiP-Quant, HeLa lysate; type: binding; conditions: peptide QRAEAER
NQO2 = molecular target: T5, NQO2 (Homo sapiens, UniProt P16083); assay: LiP-Quant, HeLa lysate; type: binding; conditions: peptide EEPIPCTAHWHFGQ
T5 sequence (P16083 1-231): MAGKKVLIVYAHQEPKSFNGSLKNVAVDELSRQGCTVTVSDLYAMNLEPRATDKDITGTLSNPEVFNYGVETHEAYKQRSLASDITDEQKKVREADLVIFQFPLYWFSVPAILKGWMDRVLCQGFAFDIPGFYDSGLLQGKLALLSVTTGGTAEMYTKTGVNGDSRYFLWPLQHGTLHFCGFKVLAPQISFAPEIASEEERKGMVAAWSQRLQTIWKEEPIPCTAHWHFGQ

MAPK2K1 = test system: MAPK2K1; design: method as in PMID 29191878; conditions: read-out: EC50 measured with alternative methods; cited from earlier work
[2] = molecular target: T6, RBM27 (RNA-binding protein 27) (Homo sapiens, UniProt Q9P2N5); assay: LiP-Quant, membrane enriched HeLa eluate
T6 sequence (Q9P2N5 1-1060): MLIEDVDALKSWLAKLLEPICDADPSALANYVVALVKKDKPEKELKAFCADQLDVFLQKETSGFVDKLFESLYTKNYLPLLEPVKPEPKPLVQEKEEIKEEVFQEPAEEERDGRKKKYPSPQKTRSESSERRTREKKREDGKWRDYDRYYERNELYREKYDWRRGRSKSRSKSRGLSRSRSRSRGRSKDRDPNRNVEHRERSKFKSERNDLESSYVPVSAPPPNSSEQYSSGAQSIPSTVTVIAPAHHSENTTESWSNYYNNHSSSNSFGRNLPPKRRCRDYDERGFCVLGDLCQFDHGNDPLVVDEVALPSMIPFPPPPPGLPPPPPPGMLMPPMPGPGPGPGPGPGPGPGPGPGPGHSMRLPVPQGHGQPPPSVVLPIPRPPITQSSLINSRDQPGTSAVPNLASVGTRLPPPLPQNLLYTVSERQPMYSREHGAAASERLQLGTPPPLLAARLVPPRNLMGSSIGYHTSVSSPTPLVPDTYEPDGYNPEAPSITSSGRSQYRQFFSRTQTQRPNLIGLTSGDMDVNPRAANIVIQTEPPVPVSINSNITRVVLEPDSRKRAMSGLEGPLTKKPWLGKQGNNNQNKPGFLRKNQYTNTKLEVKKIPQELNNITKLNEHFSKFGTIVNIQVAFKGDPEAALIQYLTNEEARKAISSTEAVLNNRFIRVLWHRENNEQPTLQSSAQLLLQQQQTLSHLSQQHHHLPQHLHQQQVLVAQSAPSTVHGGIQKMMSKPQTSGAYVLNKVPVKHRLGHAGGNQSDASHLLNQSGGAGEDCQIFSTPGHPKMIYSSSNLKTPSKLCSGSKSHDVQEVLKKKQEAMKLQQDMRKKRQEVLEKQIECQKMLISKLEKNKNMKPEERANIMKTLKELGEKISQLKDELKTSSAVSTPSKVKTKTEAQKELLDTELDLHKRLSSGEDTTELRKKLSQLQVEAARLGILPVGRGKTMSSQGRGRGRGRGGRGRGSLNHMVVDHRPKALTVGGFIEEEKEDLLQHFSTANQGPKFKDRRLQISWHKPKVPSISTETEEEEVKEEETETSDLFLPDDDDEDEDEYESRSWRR
Procedure: (§3) HeLa cells were lysed as above (lysate) however 0.3% n-dodecyl-β-D-maltoside (DDM) was added prior to lysis. […] Beads were then centrifuged at 300g for 30 s to pellet and the supernatant was aspirated. Beads were then washed six times (300g, 30 s between washes) and finally eluted in 400 µl of 0.5 M N-acetyl glucosamine (in LiP buffer without detergent) at 4 °C for 30 min. Beads were pelleted at 300g for 30 s and eluate was collected and protein was quantified by BCA test. LiP-Quant assay was performed with membrane enriched eluate in the same manner as described for standard HeLa lysate.

[3] = molecular target: ATP1A1 (Sodium/potassium-transporting ATPase subunit alpha-1) (Homo sapiens, UniProt P05023); assay: LiP-Quant, membrane enriched HeLa eluate
Procedure: as §3

[4] = molecular target: LDLR (Low-density lipoprotein receptor) (Homo sapiens, UniProt P01130); assay: LiP-Quant, membrane enriched HeLa eluate
Procedure: as §3

MYH9 (Myosin-9) = MYH9 (Myosin-9) (Homo sapiens, UniProt P35579); assay: LiP-Quant, membrane enriched HeLa eluate
Procedure: as §3

[5] = FKBP1A peptide LVFDVELLK, Decreasing
[6] = FKBP1A peptide VFDVELLK, Decreasing
[7] = FKBP1A peptide YTGMLEDGK, Decreasing

LDLR (Low-density lipoprotein receptor), sequence (P01130 22-860): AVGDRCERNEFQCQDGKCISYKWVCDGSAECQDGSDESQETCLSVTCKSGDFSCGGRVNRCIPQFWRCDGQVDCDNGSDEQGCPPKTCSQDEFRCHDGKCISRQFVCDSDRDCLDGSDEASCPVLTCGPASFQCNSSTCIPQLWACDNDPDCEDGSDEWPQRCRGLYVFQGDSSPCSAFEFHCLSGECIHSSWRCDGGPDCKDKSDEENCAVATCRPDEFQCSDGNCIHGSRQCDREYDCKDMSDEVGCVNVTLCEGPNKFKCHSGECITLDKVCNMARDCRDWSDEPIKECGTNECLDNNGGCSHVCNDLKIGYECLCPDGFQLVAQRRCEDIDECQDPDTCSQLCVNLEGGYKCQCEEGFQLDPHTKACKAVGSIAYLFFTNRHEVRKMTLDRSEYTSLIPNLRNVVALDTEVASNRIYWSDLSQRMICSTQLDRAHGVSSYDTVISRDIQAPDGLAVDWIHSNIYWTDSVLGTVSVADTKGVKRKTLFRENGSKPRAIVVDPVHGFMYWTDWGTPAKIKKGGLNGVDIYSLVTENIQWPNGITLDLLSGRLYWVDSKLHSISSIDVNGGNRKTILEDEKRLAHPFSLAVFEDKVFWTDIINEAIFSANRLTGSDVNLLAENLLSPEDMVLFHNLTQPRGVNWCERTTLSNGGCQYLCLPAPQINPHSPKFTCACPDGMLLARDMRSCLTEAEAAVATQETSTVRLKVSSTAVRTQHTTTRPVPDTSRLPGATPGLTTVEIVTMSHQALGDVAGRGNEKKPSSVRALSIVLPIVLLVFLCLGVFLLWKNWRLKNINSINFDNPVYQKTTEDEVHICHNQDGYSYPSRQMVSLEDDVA
XPO1 (Exportin-1), sequence (O14980 whole entry): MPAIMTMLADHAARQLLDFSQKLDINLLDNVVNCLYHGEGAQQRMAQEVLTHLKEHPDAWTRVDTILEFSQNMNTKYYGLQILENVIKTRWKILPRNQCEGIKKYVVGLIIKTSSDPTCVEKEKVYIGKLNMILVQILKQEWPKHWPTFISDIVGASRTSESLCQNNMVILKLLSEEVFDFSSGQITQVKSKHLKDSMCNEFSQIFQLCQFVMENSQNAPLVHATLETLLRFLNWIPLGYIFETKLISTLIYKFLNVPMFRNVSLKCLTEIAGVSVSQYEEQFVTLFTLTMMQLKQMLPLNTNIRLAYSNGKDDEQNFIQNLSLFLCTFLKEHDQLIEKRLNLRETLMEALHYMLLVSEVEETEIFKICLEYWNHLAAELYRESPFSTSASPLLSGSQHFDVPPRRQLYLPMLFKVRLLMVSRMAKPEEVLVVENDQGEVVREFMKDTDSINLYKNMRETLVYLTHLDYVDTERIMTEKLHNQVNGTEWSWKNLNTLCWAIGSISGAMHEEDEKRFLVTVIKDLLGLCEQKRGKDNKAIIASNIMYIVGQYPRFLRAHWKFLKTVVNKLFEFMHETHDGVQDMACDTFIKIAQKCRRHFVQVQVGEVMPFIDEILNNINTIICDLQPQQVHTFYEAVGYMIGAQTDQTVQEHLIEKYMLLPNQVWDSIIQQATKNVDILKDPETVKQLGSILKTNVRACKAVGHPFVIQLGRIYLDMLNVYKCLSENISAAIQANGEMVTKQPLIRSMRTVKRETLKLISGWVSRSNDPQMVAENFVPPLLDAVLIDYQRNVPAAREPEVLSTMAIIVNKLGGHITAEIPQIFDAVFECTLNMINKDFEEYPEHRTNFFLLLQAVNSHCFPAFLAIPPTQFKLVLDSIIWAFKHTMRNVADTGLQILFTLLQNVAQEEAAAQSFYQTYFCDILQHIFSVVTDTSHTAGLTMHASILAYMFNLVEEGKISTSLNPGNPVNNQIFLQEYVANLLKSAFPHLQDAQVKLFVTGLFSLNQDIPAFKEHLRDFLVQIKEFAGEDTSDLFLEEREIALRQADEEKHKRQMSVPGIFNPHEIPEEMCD
FKBP1A, sequence (P62942 whole entry): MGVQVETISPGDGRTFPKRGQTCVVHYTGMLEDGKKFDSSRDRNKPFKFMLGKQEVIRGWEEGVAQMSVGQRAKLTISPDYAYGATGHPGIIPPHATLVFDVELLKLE
MYH9 (Myosin-9), sequence (P35579 whole entry): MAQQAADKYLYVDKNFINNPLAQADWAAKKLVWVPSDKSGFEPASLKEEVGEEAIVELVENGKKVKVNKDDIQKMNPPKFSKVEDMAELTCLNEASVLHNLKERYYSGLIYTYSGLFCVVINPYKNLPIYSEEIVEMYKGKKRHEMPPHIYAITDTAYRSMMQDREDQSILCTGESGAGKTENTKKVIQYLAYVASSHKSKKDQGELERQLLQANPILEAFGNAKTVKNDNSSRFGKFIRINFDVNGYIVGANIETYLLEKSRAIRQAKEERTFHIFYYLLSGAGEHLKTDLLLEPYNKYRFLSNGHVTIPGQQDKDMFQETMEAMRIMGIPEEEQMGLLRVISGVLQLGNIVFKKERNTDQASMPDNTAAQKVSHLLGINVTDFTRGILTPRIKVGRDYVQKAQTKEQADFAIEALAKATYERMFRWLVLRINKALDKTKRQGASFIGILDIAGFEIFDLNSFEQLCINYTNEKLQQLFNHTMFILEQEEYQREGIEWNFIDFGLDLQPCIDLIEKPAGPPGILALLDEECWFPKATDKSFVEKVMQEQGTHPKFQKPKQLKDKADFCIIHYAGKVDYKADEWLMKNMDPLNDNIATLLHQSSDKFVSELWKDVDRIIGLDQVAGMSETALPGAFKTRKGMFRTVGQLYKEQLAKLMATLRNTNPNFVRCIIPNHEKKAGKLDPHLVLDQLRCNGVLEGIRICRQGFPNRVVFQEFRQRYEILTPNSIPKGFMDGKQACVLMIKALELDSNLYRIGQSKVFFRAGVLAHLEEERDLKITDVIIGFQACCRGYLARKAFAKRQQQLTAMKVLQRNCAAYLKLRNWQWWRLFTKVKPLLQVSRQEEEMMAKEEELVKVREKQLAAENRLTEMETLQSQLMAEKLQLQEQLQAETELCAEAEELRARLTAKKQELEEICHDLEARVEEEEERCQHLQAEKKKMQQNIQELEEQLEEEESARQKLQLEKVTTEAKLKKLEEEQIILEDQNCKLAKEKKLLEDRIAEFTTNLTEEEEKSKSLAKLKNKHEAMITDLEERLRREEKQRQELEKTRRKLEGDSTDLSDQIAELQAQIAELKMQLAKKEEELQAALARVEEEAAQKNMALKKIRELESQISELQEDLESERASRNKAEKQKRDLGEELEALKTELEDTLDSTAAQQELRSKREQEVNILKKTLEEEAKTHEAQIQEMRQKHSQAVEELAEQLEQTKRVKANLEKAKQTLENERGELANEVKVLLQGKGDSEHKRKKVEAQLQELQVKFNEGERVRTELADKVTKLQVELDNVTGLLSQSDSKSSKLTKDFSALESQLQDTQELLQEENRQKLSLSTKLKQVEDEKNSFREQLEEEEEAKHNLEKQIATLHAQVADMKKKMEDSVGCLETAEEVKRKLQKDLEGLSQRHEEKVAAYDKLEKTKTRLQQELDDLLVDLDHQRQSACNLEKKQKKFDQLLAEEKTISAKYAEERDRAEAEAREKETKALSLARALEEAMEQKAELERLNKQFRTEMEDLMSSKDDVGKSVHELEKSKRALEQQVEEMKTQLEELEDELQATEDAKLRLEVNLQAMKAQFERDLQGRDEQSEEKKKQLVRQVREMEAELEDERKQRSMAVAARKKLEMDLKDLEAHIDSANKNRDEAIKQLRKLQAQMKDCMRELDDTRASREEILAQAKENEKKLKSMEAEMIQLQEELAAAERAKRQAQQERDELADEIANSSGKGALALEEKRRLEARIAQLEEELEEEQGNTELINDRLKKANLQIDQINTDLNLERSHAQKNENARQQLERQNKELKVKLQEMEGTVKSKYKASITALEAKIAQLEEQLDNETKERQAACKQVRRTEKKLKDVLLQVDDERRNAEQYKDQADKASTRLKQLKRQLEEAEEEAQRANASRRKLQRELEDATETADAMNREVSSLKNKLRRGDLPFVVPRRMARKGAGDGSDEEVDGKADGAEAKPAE
MAPK2K1 (MAP2K1), sequence (Q02750 whole entry): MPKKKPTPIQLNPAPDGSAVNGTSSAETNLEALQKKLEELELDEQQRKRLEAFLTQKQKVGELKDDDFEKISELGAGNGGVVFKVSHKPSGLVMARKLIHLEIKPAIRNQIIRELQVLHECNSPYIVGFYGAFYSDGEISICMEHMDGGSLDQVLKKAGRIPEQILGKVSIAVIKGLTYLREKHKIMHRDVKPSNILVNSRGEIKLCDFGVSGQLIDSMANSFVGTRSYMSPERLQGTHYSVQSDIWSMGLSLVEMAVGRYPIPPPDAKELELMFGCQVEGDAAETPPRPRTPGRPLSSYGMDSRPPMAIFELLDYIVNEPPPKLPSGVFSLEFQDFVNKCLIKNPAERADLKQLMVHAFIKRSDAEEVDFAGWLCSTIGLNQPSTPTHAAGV
PPP1CA, sequence (P62136 whole entry): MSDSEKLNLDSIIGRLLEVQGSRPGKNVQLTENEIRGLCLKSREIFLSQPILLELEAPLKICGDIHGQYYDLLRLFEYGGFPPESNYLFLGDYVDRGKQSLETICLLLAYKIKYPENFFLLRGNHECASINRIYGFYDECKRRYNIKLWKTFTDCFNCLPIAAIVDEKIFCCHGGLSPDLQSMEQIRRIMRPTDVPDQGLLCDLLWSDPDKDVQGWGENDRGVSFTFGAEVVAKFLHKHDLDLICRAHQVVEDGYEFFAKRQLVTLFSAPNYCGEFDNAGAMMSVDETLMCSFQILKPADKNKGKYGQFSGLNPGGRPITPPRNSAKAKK
PPP3CA, sequence (P63098 2-170, other chains not shown): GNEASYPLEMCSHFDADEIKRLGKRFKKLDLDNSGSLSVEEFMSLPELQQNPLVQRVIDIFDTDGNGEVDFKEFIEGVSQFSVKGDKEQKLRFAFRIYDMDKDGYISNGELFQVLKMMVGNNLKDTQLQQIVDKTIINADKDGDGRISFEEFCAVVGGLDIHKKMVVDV

SMILES: COC[C@@H]([C@H](O)[C@H](O)C(=O)NCC[C@H](C)c1nc(/C=C/C[C@@H]2O[C@]3(C[C@@H](O)[C@@H]2C)O[C@H]([C@H](C[C@H](O)[C@H](C)[C@H](O)[C@H](C)/C=C(C)/C(C)=C/C=C/C(C)=C\C#N)OC)[C@H](OP(=O)(O)O)C3(C)C)co1)N(C)C [Calyculin A]
- EC50 (PP1): 63 nM
- EC50 (PP2A/B (PPP2CA;PPP2CB); HeLa lysate, 12 peptides, read-out: median EC50 across LiP-Quant peptides): 18 nM
- LiP Score (PP2A/B (PPP2CA;PPP2CB); peptide AHQLVMEGYNWCHDR, PPP2CA): 4.613
- EC50 (PP2A/B (PPP2CA;PPP2CB); peptide AHQLVMEGYNWCHDR, PPP2CA, read-out: EC50): 11.4 nM
- LiP Score (PP2A/B (PPP2CA;PPP2CB); peptide NVVTIFSAPNYCYR, PPP2CA): 4.820
- EC50 (PP2A/B (PPP2CA;PPP2CB); peptide NVVTIFSAPNYCYR, PPP2CA, read-out: EC50): 19.3 nM
- LiP Score (PP2A/B (PPP2CA;PPP2CB); peptide YSFLQFDPAPR, PPP2CA): 5.385
- EC50 (PP2A/B (PPP2CA;PPP2CB); peptide YSFLQFDPAPR, PPP2CA, read-out: EC50): 18.2 nM
- LiP Rank (PPP1CA): 196
- LiP Score (PPP1CA): 1.364
- LiP Rank (PPP3CA): 2187
- LiP Score (PPP3CA): 0.782
- EC50 ratio difference between PP2A and PP1 (PP2A and PP1): 3.5 fold

SMILES: C=CC[C@@H]1/C=C(\C)C[C@H](C)C[C@H](OC)[C@H]2O[C@@](O)(C(=O)C(=O)N3CCCC[C@H]3C(=O)O[C@H](/C(C)=C/[C@@H]3CC[C@@H](O)[C@H](OC)C3)[C@H](C)[C@@H](O)CC1=O)[C@H](C)C[C@@H]2OC [FK506]
- LiP Rank (FKBP1A; [5]): 8
- Score (FKBP1A; [5]): 1.86
- LiP Rank (FKBP1A; [6]): 10
- Score (FKBP1A; [6]): 1.73
- LiP Rank (FKBP1A; [7]): 4
- Score (FKBP1A; [7]): 3.01
- LiP Rank (FKBP1A; FKBP1A peptide […], Decreasing): 11
- Score (FKBP1A; FKBP1A peptide […], Decreasing): 1.72
- Score (FKBP1A; FKBP1A peptide […], Increasing): 3.49
- Score (FKBP1A; FKBP1A peptide […], Increasing, Supplementary Data 4): 3.820

SMILES: CO[C@H]1C[C@@H]2CC[C@@H](C)[C@@](O)(O2)C(=O)C(=O)N2CCCC[C@H]2C(=O)O[C@H]([C@H](C)C[C@@H]2CC[C@@H](O)[C@H](OC)C2)CC(=O)[C@H](C)/C=C(\C)[C@@H](O)[C@@H](OC)C(=O)[C@H](C)C[C@H](C)/C=C/C=C/C=C/1C [Rapamycin]
- LiP-Quant score (SYEC): > 2.5
- LiP-Quant score (ARI1): > 2.5
- EC50 ([1]; FPR1 peptide _GWDVGIPK_): 144 nM
- EC50 ([1]; FPR1 peptide _TGDLVTIH_): 619 nM
- LiP Rank ([1]; FPR1 peptide _GSPFQCNIGVGQVIK_): 1
- LiP Score ([1]; FPR1 peptide _GSPFQCNIGVGQVIK_): 3.228
- LiP Rank ([1]; FPR1 peptide _GWDVGIPK_): 2
- LiP Score ([1]; FPR1 peptide _GWDVGIPK_): 3.111
- LiP Rank ([1]; FPR1 peptide _RISPGDGATFPK_): 4
- LiP Score ([1]; FPR1 peptide _RISPGDGATFPK_): 2.974
- LiP Rank ([1]; FPR1 peptide _TGDLVTIH_): 3

- DRC (XPO1 (Exportin-1); dose-response correlation): 0.9996
- LIPRank (XPO1 (Exportin-1)): 5
- LIPscore (XPO1 (Exportin-1)): 2.504
- DRC (LIN7C; dose-response correlation): 0.9974
- LIPRank (LIN7C): 4
- LIPscore (LIN7C): 2.585
- LIPscore (MAPK2K1 (MAP2K1); peptide VSIAVIK (selumetinib sheet) or best peptide of the protein (Supp Data 7)): 2.617
- LIPRank (MAPK2K1 (MAP2K1); peptide VSIAVIK (selumetinib sheet) or protein level (Supp Data 7)): 3
- DRC (PLEC (Plectin); dose-response correlation): 0.9991
- LIPRank (PLEC (Plectin)): 1
- LIPscore (PLEC (Plectin)): 3.316
- DRC (NQO2; dose-response correlation): 0.9666
- LIPRank (NQO2): 2
- LIPscore (NQO2): 3.07
SMILES: Cn1cnc2c(F)c(Nc3ccc(Br)cc3Cl)c(C(=O)NOCCO)cc21 [Selumetinib]
- EC50 (MAPK2K1): 41 nM

SMILES: C[C@@H]1O[C@@H](O[C@@H]2C=C3CC[C@@H]4[C@H](CC[C@]5(C)[C@@H](c6ccc(=O)oc6)CC[C@]45O)[C@@]3(C)CC2)[C@H](O)[C@H](O)[C@H]1O [proscillaridin A]
- EC50 [2]: 17.3 nM
- DRC ([2]; peptide LSSGEDTTELR): 0.9721
- LiP Rank ([2]; peptide LSSGEDTTELR): 3
- LiP Score ([2]; peptide LSSGEDTTELR): 4.331
- EC50 [3]: 16.4 nM
- DRC ([3]; peptide AVAGDASESALLK): 0.9716
- LiP Rank ([3]; peptide AVAGDASESALLK): 1
- LiP Score ([3]; peptide AVAGDASESALLK): 4.437
- EC50 [4]: 27.3 nM
- DRC ([4]; peptide TILEDEKR): 0.9716
- LiP Rank ([4]; peptide TILEDEKR): 2
- LiP Score ([4]; peptide TILEDEKR): 4.346
- EC50 (MYH9 (Myosin-9)): 31 nM
- DRC (MYH9 (Myosin-9); peptide HSQAVEELAEQLEQTKR): 0.9583
- LiP Rank (MYH9 (Myosin-9); peptide HSQAVEELAEQLEQTKR): 4
- LiP Score (MYH9 (Myosin-9); peptide HSQAVEELAEQLEQTKR): 4.317
